Experimental data from publication PMC6114080 (International Journal for Parasitology: Drugs and Drug …, 2018).

Assays:
Format in all cases: biochemical
HsGPI = HsGPI (Homo sapiens, UniProt P06744); assay: G6PDH-coupled NADH assay at […] nm
CpGPI (MBP-CpGPI) [1] = target: T1, CpGPI (MBP-CpGPI) (Cryptosporidium parvum, UniProt Q5CTF8); assay: G6PDH-coupled NADH assay at […] nm
T1 sequence (Q5CTF8 1-567): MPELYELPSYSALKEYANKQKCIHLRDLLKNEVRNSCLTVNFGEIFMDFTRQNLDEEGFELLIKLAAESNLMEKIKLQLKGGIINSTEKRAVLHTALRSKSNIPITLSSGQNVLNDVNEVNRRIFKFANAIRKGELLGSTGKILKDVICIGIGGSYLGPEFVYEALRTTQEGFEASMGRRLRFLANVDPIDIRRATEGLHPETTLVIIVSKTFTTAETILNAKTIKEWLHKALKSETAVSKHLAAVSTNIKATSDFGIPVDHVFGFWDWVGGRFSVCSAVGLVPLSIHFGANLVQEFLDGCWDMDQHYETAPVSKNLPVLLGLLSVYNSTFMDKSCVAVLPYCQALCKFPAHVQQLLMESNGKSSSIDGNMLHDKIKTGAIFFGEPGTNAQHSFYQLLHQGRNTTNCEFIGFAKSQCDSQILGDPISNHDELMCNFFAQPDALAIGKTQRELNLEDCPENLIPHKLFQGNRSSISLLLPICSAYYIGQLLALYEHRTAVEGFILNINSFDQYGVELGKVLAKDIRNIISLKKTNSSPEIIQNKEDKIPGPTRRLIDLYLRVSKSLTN

CpGPI (MBP-CpGPI) [2] = target: T1, CpGPI (MBP-CpGPI); assay: G6PDH-coupled NADH assay at […] nm, mixed noncompetitive fit

Compound `O=c1c2ccccc2[se]n1-c1ccccc1` [ebselen, 2-phenyl-1,2-benzisoselenazol-3(2H)-one] has an IC50 (HsGPI) greater than 400 µM, an IC50 (CpGPI (MBP-CpGPI) [1]) of 8.33 µM and a Ki (CpGPI (MBP-CpGPI) [2]) of 36.3 µM.

For `O=C[C@H](O)[C@H](O)COP(=O)(O)O` [erythrose-4-phosphate], the IC50 (CpGPI (MBP-CpGPI) [1]) was 132 µM.
